Results on 24 substances are retold here after patent US12065512B2, “Cyclic peptide and a medicament, external preparation and cosmetic comprising said cyclic peptide” (Igisu Co., Ltd., priority 2015, dated 2024).

One assay concerns skin, affected site. Nature of the assay: Cyclic peptides with amino acid replacement: effects on skin (formulations A to E = 3, 15, 30, 100, 500 μg/ml in purified water). Format: in vivo, human. As to the method: Next, cyclic peptides with some replaced amino acid were subjected to following examination in order to confirm their effect. The methods for preparing the above cyclic peptide and confirming amino acid sequence of the prepared peptide were same as the method for preparing the cyclic peptide as described above and Mass spectroscopy method.
9.2 Confirming Effects on Skin
The obtained cyclic peptide was prepared in purified water at 3, 15, 30, 100 or 500 μg/ml and applied to affected site. Each of formulations A to E in the table indicates the concentration of the cyclic peptide at 3, 15, 30, 100 or 500 μg/ml, respectively. The absence of the effect upon the application of purified water without the peptide confirmed the effect was not a placebo effect.

The test system of assay [1] is skin condition of the subjects. As to the kind of experiment: Skin condition upon using bath agent comprising B ring. Format: in vivo, human. Conditions: bath in 37 to 41° C. hot water with 0.01 μM, once a day for 14 days. As to the method:
4.4 Observation on Skin Condition Upon Using Bath Agent Comprising B Ring
Subjects were given bath in 37 to 41° C. hot water comprising B ring dissolved at 0.01 μM (100 ml of 20 μM B ring solution dissolved in 200 L hot water) once a day for 14 days, and skin condition of the subjects was compared to the case of hot water alone (Table 14). The changes in skin conditions were determined based on physical sensory evaluation by the subject and our objective observation as physicians.

The mark [2] stands for this setting: formulation C = 30 μg/ml cyclic peptide in purified water, applied to affected site, one line per subject (ID Q..), diagnosis and treatment as in the table line.
Setting [3] is: eczema, formulation C (30 μg/ml in purified water), once a day.
Setting [4] is: atopic dermatitis, formulation C (30 μg/ml in purified water), once a day.
Setting [5] is: chronic eczema, formulation C (30 μg/ml in purified water), once a day.
Where [6] appears, read: roughened skin, formulation C (30 μg/ml in purified water), once a day.

Positions of bridges follow the written chain, without caps; N, C: chain ends. No end group written: not given here.

With “SEQ ID NO 16 (CFVRKMDRISSSSGLGC; disulfide 1-17)”, in the assay with skin, affected site (setting [2]), the “Diagnostic impression on skin after application” value (from here on “Diagnostic impression on skin”) is listed as “After 3 minutes, erythema was remitted”.

Take “SEQ ID NO 18 (CFGHKMDRISSSSGLGC; disulfide 1-17)”: the “Diagnostic impression on skin” value with skin, affected site (setting [2]) is given as “After 2 minutes, redness was remitted”.

As to “SEQ ID NO 26 (CFGRKMDRISSVSGLGC; disulfide 1-17)”, in the assay with skin, affected site (setting [2]), the “Diagnostic impression on skin” value was “After 2 minutes, remitted”.

“SEQ ID NO 39 (CFSRKMDRISSSSGLGC; disulfide 1-17)”: in the assay on skin, affected site (setting [2]), the “Diagnostic impression on skin” value is listed as “After 3 minutes, nodes were flattened”.

In the case of “SEQ ID NO 42 (CFGRKMDRISSASGLGC; disulfide 1-17)”, the “Diagnostic impression on skin” value is “After 1 minute, redness was remitted” with skin, affected site (acne, formulation C (30 μg/ml in purified water), once a day); “After 3 minutes, erythema and dry skin” in the assay with skin, affected site (setting [3]). The Itches after application entry in the assay with skin, affected site (atopic dermatitis, formulation B (15 μg/ml in purified water), once a day) was “Iches were eliminated”.

Turning to “SEQ ID NO 43 (CFGRKMDRISSSTGLGC; disulfide 1-17)”, the “Diagnostic impression on skin” value was “After 2 minutes, no discomfort, felt” in the assay with skin, affected site (setting [4]); “After 1 minute, redness and infiltration” in the assay on skin, affected site (setting [3]); “After 7 minutes, acne was reduce and” in the assay on skin, affected site (rosacae/acne, formulation C (30 μg/ml in purified water), once a day); 1 minute after application, dry skin in the assay on skin, affected site (roughened lips, formulation C (30 μg/ml in purified water), once a day); “After 3 minutes, redness and dry skin” in the assay with skin, affected site (roughened skin, formulation B (15 μg/ml in purified water), once a day). Also, the Itches after application result with skin, affected site (setting [4]) is “After 3 minutes,”; in the assay on skin, affected site (setting [3]) it was “Iches were eliminated”.

Turning to “SEQ ID NO 44 (CFGRKMDRISSSAGLGC; disulfide 1-17)”, in the assay on skin, affected site (setting [3]), the “Diagnostic impression on skin” value is “After 1 minute, erythema and infiltration”; the Itches after application entry is given as “Iches were remitted”. In addition, the “Diagnostic impression on skin” value with skin, affected site (healthy skin, formulation B (15 μg/ml in purified water), once a day) is given as “Skin got moisturized promptly, wrinkles”.

Take “SEQ ID NO 47 (CFSRKMDRISSSTGLGC; disulfide 1-17)”: the “Diagnostic impression on skin” value in the assay on skin, affected site (setting [5]) is on record as “Immediately after application, erythema”.

For the substance “SEQ ID NO 49 (CFSRKMDRISSSSGLAC; disulfide 1-17)”, in the assay with skin, affected site (setting [5]), the “Diagnostic impression on skin” value is “Immediately after application, erythema”.

Turning to “SEQ ID NO 53 (CFGRRMDRISSSSGLAC; disulfide 1-17)”, the “Diagnostic impression on skin” value in the assay with skin, affected site (setting [3]) was “After 1 minute, erythema and infiltration”.

Consider “SEQ ID NO 58 (CFGRKMDRISSSSGIAC; disulfide 1-17)”, for which the “Diagnostic impression on skin” value with skin, affected site (setting [3]) is “After 2 minutes, erythema, scales,”.

With “SEQ ID NO 60 (CFSRRMDRISSSTGLGC; disulfide 1-17)”, the “Diagnostic impression on skin” value in the assay on skin, affected site (setting [5]) is given as “Immediately after application, erythema”.

With “SEQ ID NO 61 (CFSRRMDRISSSSGIGC; disulfide 1-17)”, the “Diagnostic impression on skin” value in the assay on skin, affected site (chronic, formulation C (30 μg/ml in purified water), once a day) is reported as “Immediately after application, erythema”.

Turning to “SEQ ID NO 63 (CFSRKMDRISSTSGIGC; disulfide 1-17)”, the “Diagnostic impression on skin” value with skin, affected site (eczema, formulation B (15 μg/ml in purified water), once a day) is “After 3 minutes, erythema and scales”.

On to “SEQ ID NO 64 (CFSRKMDRISSSTGIGC; disulfide 1-17)”, for which the “Diagnostic impression on skin” value in the assay on skin, affected site (setting [5]) is “Immediately after application, erythema”.

Take “SEQ ID NO 65 (CFSRKMDRISSSTGLAC; disulfide 1-17)”: the “Diagnostic impression on skin” value in the assay with skin, affected site (setting [6]) is listed as “After 1 minute, skin got moisturized and”.

As to “SEQ ID NO 68 (CFGRRMDRISSTSGLAC; disulfide 1-17)”, in the assay with skin, affected site (setting [5]), the “Diagnostic impression on skin” value is recorded as “Immediately after application, erythema”.

“SEQ ID NO 69 (CFGRRMDRISSSTGIGC; disulfide 1-17)”: the “Diagnostic impression on skin” value in the assay with skin, affected site (setting [3]) is “After 2 minutes, erythema, scales,”.

For the substance “SEQ ID NO 70 (CFGRRMDRISSSTGLAC; disulfide 1-17)”, the “Diagnostic impression on skin” value in the assay on skin, affected site (setting [5]) was “immediately after application, erythema”; with skin, affected site (setting [6]), “Redness vanished in 30 seconds. After 1”.

Consider “SEQ ID NO 72 (CFSRRMDRISSTSGLAC; disulfide 1-17)”, for which the “Diagnostic impression on skin” value in the assay on skin, affected site (setting [5]) is recorded as “Immediately after application, erythema,”.

As for “SEQ ID NO 73 (CFSRRMDRISSSTGIGC; disulfide 1-17)”, in the assay with skin, affected site (setting [5]), the “Diagnostic impression on skin” value is on record as “Immdediately after application, erythema”.

As for “SEQ ID NO 74 (CFSRRMDRISSSTGLAC; disulfide 1-17)”, the “Diagnostic impression on skin” value with skin, affected site (chronic eczema, formulation D (100 μg/ml in purified water), once a day) is “Iches were eliminated immediately after”; in the assay on skin, affected site (setting [6]) it was “After 1 minute, rawness and hot flash”.

Take “SEQ ID NO 75 (CFSRRMDRISSSSGIAC; disulfide 1-17)”: in the assay with skin, affected site (setting [3]), the “Diagnostic impression on skin” value is “After 2 minutes, erythema, scalesm”.

For the substance “Ser-Pro-Lys-Met-Val-Gln-Gly-Ser-Gly-Cys-Phe-Gly-Arg-Lys-Met-Asp-Arg-Ile-Ser-Ser-Ser-Ser-Gly-Le u-Gly-Cys-Lys-Val-Leu-Arg-Arg-His [BNP, reference compound]”, in assay [1], the “Changes in subjective symptoms” value was “No subjective remission of skin” and the Post-application symptoms result is on record as “No remission of skin desiccation”.
